# From ChEMBL document CHEMBL4334438, “Discovery of novel glycogen synthase kinase-3α inhibitors: Structure-based virtual screening, preliminary SAR and biological evaluation for treatment of acute myeloid leukemia” (Eur J Med Chem, 2019)
# Legend:
# [1] = system: Casein kinase II subunit alpha' (CSNK2A2); assay: Inhibition of recombinant full length human CK2alpha2 assessed as residual activity at 1 uM using RRRDDDSDDD as substrate incubated 40 mins in presence of [gamma-33ATP] by scintillation counting based radiometry assay relative to control
# [2] = target: Ribosomal protein S6 kinase alpha-3 (Homo sapiens) (UniProt P51812); assay: Inhibition of recombinant human Rsk2 (2 to end residues) assessed as residual activity at 1 uM using KKKNRTLSVA as substrate measured after 40 mins in presence of [gamma33P]ATP by scintillation counting method relative to control
# [3] = target: Proto-oncogene tyrosine-protein kinase Src (Homo sapiens) (UniProt P12931); assay: Inhibition of recombinant human C-Src assessed as residual activity at 1 uM KVEKIGEGTYGVV as substrate incubated 40 mins in presence of [gamma-33ATP] by scintillation counting based radiometry assay relative to control
# [4] = target: Bone morphogenetic protein receptor type-2 (Homo sapiens) (UniProt Q13873); assay: Inhibition of recombinant human BMPR2 (172 to 734 residues) assessed as residual activity at 1 uM using myelin basic protein as substrate incubated for 120 mins in presence of [gamma-33ATP] by scintillation counting based radiometry assay relative to control
# Chain of Bone morphogenetic protein receptor type-2 (Homo sapiens) (Q13873 whole entry, the tested form may be a part): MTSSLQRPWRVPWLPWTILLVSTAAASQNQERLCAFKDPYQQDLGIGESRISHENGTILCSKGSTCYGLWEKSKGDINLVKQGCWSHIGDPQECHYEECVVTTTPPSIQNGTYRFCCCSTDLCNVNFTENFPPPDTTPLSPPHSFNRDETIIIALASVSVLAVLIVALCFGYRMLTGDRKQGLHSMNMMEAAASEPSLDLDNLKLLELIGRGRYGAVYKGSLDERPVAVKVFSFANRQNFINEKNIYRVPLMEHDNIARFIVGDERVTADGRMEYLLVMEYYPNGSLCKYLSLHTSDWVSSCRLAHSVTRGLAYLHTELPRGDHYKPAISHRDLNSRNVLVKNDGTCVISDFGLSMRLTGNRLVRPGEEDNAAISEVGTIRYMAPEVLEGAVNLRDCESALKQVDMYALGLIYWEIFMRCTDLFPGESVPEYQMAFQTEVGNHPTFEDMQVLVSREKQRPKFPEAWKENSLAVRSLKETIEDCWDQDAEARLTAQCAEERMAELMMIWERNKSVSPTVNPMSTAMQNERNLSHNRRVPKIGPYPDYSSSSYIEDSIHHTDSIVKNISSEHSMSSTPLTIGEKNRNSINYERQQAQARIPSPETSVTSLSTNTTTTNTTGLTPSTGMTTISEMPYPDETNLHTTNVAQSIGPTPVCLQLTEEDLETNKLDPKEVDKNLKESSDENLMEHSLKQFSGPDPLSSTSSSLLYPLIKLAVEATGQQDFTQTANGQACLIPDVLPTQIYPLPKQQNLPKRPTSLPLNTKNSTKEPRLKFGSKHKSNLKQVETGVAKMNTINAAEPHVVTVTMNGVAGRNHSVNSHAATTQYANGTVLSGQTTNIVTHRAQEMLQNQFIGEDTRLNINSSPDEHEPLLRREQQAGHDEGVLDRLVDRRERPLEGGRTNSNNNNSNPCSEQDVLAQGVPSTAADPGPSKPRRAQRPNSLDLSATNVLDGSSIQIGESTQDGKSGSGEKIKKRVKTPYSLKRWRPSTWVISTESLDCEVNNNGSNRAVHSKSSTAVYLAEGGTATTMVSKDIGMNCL
# [5] = target: Dual specificity protein kinase CLK2 (Homo sapiens) (UniProt P49760); assay: Inhibition of recombinant human CLK2 (138 to end residues) assessed as residual activity at 1 uM using YRRAAVPPSPSLSRHSSPHQS(p)EDEEE as substrate incubated 40 mins in presence of [gamma-33ATP] by scintillation counting based radiometry assay relative to control
# [6] = target: Calcium/calmodulin-dependent protein kinase type II subunit alpha (Homo sapiens) (UniProt Q9UQM7); assay: Inhibition of recombinant full length human CaMK2alpha assessed as residual activity at 1 uM using KKLNRTLSFAEPG as substrate incubated for 40 mins in presence of [gamma-33ATP] by scintillation counting based radiometry assay relative to control
# Chain of Calcium/calmodulin-dependent protein kinase type II subunit alpha (Homo sapiens) (Q9UQM7 whole entry): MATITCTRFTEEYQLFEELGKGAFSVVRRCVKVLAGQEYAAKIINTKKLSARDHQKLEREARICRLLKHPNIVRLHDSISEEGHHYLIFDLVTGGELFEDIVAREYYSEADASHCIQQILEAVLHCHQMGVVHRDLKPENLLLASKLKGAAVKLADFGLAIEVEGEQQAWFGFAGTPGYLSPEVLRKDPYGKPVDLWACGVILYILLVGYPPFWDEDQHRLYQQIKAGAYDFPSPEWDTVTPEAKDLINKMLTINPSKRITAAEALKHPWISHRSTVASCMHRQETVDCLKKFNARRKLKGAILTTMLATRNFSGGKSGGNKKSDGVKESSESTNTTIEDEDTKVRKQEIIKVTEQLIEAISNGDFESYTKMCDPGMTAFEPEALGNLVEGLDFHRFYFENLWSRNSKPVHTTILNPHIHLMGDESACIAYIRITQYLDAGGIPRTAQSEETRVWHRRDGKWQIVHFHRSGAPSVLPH
# [7] = target: Tyrosine-protein kinase Lck (Homo sapiens) (UniProt P06239); assay: Inhibition of recombinant full length human LCK activated assessed as residual activity at 1 uM using KVEKIGEGTYGVVYK as substrate after 40 mins in presence of [gamma-33ATP] by scintillation counting based radiometry assay relative to control
# Chain of Tyrosine-protein kinase Lck (Homo sapiens) (P06239 2-509 limits assumed): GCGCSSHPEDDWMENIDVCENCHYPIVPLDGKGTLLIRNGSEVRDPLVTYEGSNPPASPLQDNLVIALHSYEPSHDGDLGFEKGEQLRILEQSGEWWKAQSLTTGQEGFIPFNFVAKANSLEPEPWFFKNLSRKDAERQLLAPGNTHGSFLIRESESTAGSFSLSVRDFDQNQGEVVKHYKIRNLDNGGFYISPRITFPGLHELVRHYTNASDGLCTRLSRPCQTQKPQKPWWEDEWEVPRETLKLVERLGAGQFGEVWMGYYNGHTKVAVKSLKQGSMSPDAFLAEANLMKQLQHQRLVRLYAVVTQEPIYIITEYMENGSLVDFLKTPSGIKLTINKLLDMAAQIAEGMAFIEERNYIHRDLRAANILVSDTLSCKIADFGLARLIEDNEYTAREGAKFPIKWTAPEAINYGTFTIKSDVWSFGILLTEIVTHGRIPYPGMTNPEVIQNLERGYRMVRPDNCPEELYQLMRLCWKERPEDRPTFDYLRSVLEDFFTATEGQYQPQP
# [8] = target: CDK4/Cyclin D3 (Homo sapiens) (UniProt P11802+P30281); assay: Inhibition of recombinant full length human CDK4/CyclinD3 assessed as residual activity at 1 uM using Rb fragment as substrate incubated for 40 mins in presence of [gamma-33ATP] by scintillation counting based radiometry assay relative to control; format: protein-complex assay
# [9] = target: Serine/threonine-protein kinase NLK (Homo sapiens) (UniProt Q9UBE8); assay: Inhibition of recombinant human NLK (121 to end residues) assessed as residual activity at 1 uM using myelin basic protein as substrate measured after 40 mins in presence of [gamma33P]ATP by scintillation counting method relative to control
# Chain of Serine/threonine-protein kinase NLK (Homo sapiens) (Q9UBE8 whole entry): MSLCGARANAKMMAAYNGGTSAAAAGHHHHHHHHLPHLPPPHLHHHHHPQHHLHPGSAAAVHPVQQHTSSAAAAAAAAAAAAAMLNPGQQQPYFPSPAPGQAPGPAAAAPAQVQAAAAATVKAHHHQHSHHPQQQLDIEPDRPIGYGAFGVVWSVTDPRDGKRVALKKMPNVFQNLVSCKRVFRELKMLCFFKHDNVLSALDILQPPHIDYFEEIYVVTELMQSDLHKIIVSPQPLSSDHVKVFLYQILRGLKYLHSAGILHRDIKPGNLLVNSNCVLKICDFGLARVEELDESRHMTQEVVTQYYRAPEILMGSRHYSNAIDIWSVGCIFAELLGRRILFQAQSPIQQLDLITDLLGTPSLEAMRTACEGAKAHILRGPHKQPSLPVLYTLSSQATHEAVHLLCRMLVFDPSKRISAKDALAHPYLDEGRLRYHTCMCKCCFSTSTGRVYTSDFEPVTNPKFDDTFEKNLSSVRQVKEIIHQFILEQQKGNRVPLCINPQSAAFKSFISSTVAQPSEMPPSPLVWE
# [10] = target: cAMP-dependent protein kinase catalytic subunit alpha (Homo sapiens) (UniProt P17612); assay: Inhibition of recombinant human PKA assessed as residual activity at 1 uM using Kemptide as substrate measured after 40 mins in presence of [gamma33P]ATP by scintillation counting method relative to control
# [11] = target: Proto-oncogene tyrosine-protein kinase receptor Ret (Homo sapiens) (UniProt P07949); assay: Inhibition of recombinant human Ret (658 to end residues) assessed as residual activity at 1 uM using KKKSPGEYVNIEFG as substrate measured after 40 mins in presence of [gamma33P]ATP by scintillation counting method relative to control
# [12] = target: Serine/threonine-protein kinase PAK 4 (Homo sapiens) (UniProt O96013); assay: Inhibition of recombinant human PAK4 (295 to end residues) assessed as residual activity at 1 uM using myelin basic protein as substrate measured after 40 mins in presence of [gamma33P]ATP by scintillation counting method relative to control
# [13] = target: Receptor-interacting serine/threonine-protein kinase 1 (Homo sapiens) (UniProt Q13546); assay: Inhibition of recombinant human RIPK1 (8 to 322 residues) assessed as residual activity at 1 uM using myelin basic protein as substrate measured after 120 mins in presence of [gamma33P]ATP by scintillation counting method relative to control
# Chain of Receptor-interacting serine/threonine-protein kinase 1 (Homo sapiens) (Q13546 whole entry, the tested form may be a part): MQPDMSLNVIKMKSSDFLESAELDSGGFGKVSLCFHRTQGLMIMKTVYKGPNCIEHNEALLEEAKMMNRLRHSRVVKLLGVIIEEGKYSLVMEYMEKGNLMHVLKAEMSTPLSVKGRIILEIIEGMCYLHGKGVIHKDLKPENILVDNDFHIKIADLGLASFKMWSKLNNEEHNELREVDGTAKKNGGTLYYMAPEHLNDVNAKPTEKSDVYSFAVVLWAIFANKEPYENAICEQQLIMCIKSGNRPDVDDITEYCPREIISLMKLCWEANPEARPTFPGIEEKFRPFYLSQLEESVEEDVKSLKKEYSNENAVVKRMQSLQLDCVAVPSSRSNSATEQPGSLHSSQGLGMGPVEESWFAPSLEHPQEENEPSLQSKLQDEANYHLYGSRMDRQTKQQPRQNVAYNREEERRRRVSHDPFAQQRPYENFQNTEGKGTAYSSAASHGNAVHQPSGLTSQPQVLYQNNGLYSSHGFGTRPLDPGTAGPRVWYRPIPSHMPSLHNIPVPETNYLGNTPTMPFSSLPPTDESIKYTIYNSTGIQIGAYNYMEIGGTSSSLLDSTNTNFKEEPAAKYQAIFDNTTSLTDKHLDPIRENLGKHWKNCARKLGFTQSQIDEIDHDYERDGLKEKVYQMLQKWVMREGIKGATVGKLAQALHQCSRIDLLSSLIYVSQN
# [14] = system: Platelet-derived growth factor receptor alpha (Homo sapiens), P16234 [V561D]; assay: Inhibition of human PDGFRalpha V561D mutant (550 to end residues) assessed as residual activity at 1 uM using GGMEDIYFEFMGGKKK as substrate measured after 40 mins in presence of [gamma33P]ATP by scintillation counting method relative to control
# [15] = target: CDK3/Cyclin E (Homo sapiens) (UniProt P24864+Q00526); assay: Inhibition of recombinant full length human CDK3/CyclinE assessed as residual activity at 1 uM using Histone H1 as substrate incubated for 40 mins in presence of [gamma-33ATP] by scintillation counting based radiometry assay relative to control; format: protein-complex assay
# Chain of CDK3/Cyclin E (Homo sapiens) (P24864 whole entry, looked up): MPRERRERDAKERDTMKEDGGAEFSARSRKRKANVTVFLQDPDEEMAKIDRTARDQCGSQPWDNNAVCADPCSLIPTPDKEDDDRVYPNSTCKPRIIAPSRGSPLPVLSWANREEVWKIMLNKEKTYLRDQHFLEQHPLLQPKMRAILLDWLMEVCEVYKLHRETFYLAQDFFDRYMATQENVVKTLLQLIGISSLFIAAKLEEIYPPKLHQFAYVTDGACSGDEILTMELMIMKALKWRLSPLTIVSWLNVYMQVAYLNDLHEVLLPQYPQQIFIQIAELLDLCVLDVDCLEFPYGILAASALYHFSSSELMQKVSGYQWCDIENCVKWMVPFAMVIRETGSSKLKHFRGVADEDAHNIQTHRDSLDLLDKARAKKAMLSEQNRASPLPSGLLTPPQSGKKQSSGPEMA
# Chain of CDK3/Cyclin E (Homo sapiens) (Q00526 whole entry, looked up): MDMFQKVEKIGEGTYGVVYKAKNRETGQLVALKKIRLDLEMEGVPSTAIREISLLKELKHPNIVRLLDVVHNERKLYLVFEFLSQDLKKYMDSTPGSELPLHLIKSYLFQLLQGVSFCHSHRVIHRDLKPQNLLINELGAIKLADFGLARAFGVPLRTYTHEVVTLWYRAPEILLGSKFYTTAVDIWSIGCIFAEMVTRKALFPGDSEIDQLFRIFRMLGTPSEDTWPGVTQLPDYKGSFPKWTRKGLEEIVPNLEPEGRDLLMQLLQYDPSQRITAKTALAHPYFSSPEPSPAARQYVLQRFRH
# [16] = target: Tyrosine-protein kinase BTK (Homo sapiens) (UniProt Q06187); assay: Inhibition of recombinant full length human BTK assessed as residual activity at 1 uM using KVEKIGEGTYGVV substrate incubated for 40 mins in presence of [gamma-33ATP] by scintillation counting based radiometry assay relative to control
# [17] = system: Tyrosine-protein kinase ABL1 (Homo sapiens), P00519 [H396P]; assay: Inhibition of human ABL1 H396P mutant (27 to end residues) assessed as residual activity at 1 uM using EAIYAAPFAKKK as substrate incubated for 40 mins in presence of [gamma-33ATP] by scintillation counting based radiometry assay relative to control
# [18] = target: Beta-adrenergic receptor kinase 1 (Homo sapiens) (UniProt P25098); assay: Inhibition of recombinant full length human GRK2 assessed as residual activity at 1 uM using casein as substrate at 40 mins in presence of [gamma-33ATP] by scintillation counting based radiometry assay relative to control
# Chain of Beta-adrenergic receptor kinase 1 (Homo sapiens) (P25098 whole entry): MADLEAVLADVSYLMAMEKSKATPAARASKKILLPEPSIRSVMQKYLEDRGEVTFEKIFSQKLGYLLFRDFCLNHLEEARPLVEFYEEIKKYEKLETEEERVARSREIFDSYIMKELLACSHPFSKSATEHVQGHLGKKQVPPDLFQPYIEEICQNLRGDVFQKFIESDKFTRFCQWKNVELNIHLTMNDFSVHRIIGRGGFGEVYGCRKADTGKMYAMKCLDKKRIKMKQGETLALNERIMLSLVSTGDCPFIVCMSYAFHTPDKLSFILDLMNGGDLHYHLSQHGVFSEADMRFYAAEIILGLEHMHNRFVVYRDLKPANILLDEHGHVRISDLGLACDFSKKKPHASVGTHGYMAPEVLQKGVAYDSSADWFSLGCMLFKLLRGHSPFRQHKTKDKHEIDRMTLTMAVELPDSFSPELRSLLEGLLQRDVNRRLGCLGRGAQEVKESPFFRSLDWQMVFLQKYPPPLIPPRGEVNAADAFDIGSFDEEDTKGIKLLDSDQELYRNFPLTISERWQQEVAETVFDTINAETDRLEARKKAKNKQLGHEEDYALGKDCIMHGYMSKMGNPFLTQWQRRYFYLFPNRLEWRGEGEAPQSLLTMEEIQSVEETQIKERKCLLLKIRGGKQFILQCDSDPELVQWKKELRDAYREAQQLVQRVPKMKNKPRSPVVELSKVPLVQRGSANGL
# [19] = target: Serine/threonine-protein kinase MAK (Homo sapiens) (UniProt P20794); assay: Inhibition of recombinant human MAK assessed as residual activity at 1 uM using RRRFRPASPLRGPPK as substrate after 120 mins in presence of [gamma-33ATP] by scintillation counting based radiometry assay relative to control
# [20] = target: Ribosomal protein S6 kinase alpha-5 (Homo sapiens) (UniProt O75582); assay: Inhibition of recombinant human MSK1 (2 to end residues) assessed as residual activity at 1 uM using GRPRTSSFAEGKK as substrate measured after 40 mins in presence of [gamma33P]ATP by scintillation counting method relative to control
# Homo sapiens = species on record: Homo sapiens; assay: Inhibition of recombinant human Ros V2262A mutant (1883 to end residues) assessed as residual activity at 1 uM using KKKSPGEYVNIEFG as substrate measured after 40 mins in presence of [gamma33P]ATP by scintillation counting method relative to control
SMILES,Activity [1] [%],Activity [2] [%],Activity [3] [%],Activity [4] [%],Activity [5] [%],Activity [6] [%],Activity [7] [%],Activity [8] [%],Activity [9] [%],Activity [10] [%],Activity [11] [%],Activity [12] [%],Activity [13] [%],Activity [14] [%],Activity [15] [%],Activity [16] [%],Activity [17] [%],Activity [18] [%],Activity [19] [%],Activity [20] [%],further results
C=CCOC(=O)c1cc(-c2ccc(/C=C3/NC(=S)NC3=O)o2)ccc1Cl,73,112,79,99,38,62,76,98,64,82,102,101,106,110,88,101,110,101,37,100,Activity (Homo sapiens): 118%
N=C1NC(=O)/C(=C\c2ccc(-c3cccc([N+](=O)[O-])c3)o2)S1,52,85,82,91,39,80,93,87,59,107,92,92,100,91,80,93,80,98,17,95,Activity (Homo sapiens): 95%
